Values joined by “and” are separate entries in the source; they are usually repeats but may differ in a detail not shown here. Identical values can stand only once. Toxic doses and inconclusive results are not listed.
Test system: BDF1 mice, P388 leukemia ip, median survival T/C
Experiment: NCI In Vivo Anticancer Drug Screen. Data for tumor model P388 Leukemia (intraperitoneal) in B6D2F1 (BDF1) mice
Settings: endpoint: median survival time, higher = longer survival
Outline: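 Transplantable tumour in mice; compound vs vehicle dosing; survival scored; ratio of treated to control reported.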

[1] = dose: 100.0 mg/kg/injection, schedule: Q04DX003 (ip), vehicle: Klucel (hydroxypropylcellulose) (HPC)
[2] = dose: 200.0 mg/kg/injection, schedule: Q04DX003 (ip), vehicle: Klucel (hydroxypropylcellulose) (HPC)
[3] = dose: 400.0 mg/kg/injection, schedule: Q04DX003 (ip), vehicle: Klucel (hydroxypropylcellulose) (HPC)
[4] = dose: 100.0 mg/kg/injection, schedule: Q01DX009 (ip), vehicle: Klucel (hydroxypropylcellulose) (HPC)
[5] = dose: 200.0 mg/kg/injection, schedule: Q01DX009 (ip), vehicle: Klucel (hydroxypropylcellulose) (HPC)
[6] = dose: 400.0 mg/kg/injection, schedule: Q01DX009 (ip), vehicle: Klucel (hydroxypropylcellulose) (HPC)
[7] = dose: 6.25 mg/kg/injection, schedule: Q01DX009 (ip), vehicle: Klucel (hydroxypropylcellulose) (HPC)
[8] = dose: 12.5 mg/kg/injection, schedule: Q01DX009 (ip), vehicle: Klucel (hydroxypropylcellulose) (HPC)
[9] = dose: 50.0 mg/kg/injection, schedule: Q01DX009 (ip), vehicle: saline with Tween-80
[10] = dose: 100.0 mg/kg/injection, schedule: Q01DX009 (ip), vehicle: saline with Tween-80
[11] = dose: 100.0 mg/kg/injection, schedule: Q01DX009 (ip), vehicle: saline
[12] = dose: 200.0 mg/kg/injection, schedule: Q01DX009 (ip), vehicle: saline
[13] = dose: 50.0 mg/kg/injection, schedule: Q01DX009 (ip), vehicle: Klucel (hydroxypropylcellulose) (HPC)

With `N#Cc1c(F)c(F)c(C#N)c(F)c1F` the T/C (dose: 1.25 mg/kg/injection, schedule: Q01DX009 (ip), vehicle: Klucel (hydroxypropylcellulose) (HPC)) was 100 % of control, the T/C (dose: 2.5 mg/kg/injection, schedule: Q01DX009 (ip), vehicle: Klucel (hydroxypropylcellulose) (HPC)) was 104 % of control and the T/C (dose: 5.0 mg/kg/injection, schedule: Q01DX009 (ip), vehicle: Klucel (hydroxypropylcellulose) (HPC)) was 108 % of control. For the same molecule, the T/C (dose: 10.0 mg/kg/injection, schedule: Q01DX009 (ip), vehicle: Klucel (hydroxypropylcellulose) (HPC)) was 104 % of control.

In the case of `CCOC(=O)C1CN(Cc2ccccc2)CCC1=O` (stereo not drawn), the T/C (dose: 50.0 mg/kg/injection, schedule: Q01DX001 (ip), vehicle: saline) was 104 % of control, the T/C (dose: 100.0 mg/kg/injection, schedule: Q01DX001 (ip), vehicle: saline) was 95 % of control and the T/C (dose: 200.0 mg/kg/injection, schedule: Q01DX001 (ip), vehicle: saline) was 90 % of control.

For `CC(C)[C@]12O[C@H]1[C@@H]1O[C@]13[C@]1(O[C@H]1C[C@H]1C4=C(CC[C@@]13C)C(=O)OC4)[C@@H]2O`, the T/C (dose: 26.0 micrograms/kg/injection, schedule: Q01DX009 (ip), vehicle: saline) was 118 % of control, the T/C (dose: 40.0 micrograms/kg/injection, schedule: Q01DX009 (ip), vehicle: saline) was 118 % of control and the T/C (dose: 60.0 micrograms/kg/injection, schedule: Q01DX009 (ip), vehicle: saline) was 100 % of control. The T/C (dose: 89.0 micrograms/kg/injection, schedule: Q01DX009 (ip), vehicle: saline) was 109 % of control and the T/C (dose: 133.0 micrograms/kg/injection, schedule: Q01DX009 (ip), vehicle: saline) was 100 % of control.

With `O=C1c2ccccc2C(=O)N1C/C(=N/O)c1ccc(C(F)(F)F)cc1` the T/C (dose: 50.0 mg/kg/injection, schedule: Q01DX001 (ip), vehicle: Klucel (hydroxypropylcellulose) (HPC)) was 96 % of control, the T/C (dose: 100.0 mg/kg/injection, schedule: Q01DX001 (ip), vehicle: Klucel (hydroxypropylcellulose) (HPC)) was 96 % of control and the T/C (dose: 200.0 mg/kg/injection, schedule: Q01DX001 (ip), vehicle: Klucel (hydroxypropylcellulose) (HPC)) was 96 % of control.

With `COc1cc(Cc2cc(OC)c(O)c(OC)c2)cc(OC)c1O` the T/C [1] was 95 % of control, the T/C [2] was 100 % of control and the T/C [3] was 100 % of control.

For `Nc1c(Br)cc(Br)c2ccccc12`, the T/C [4] was 95 % of control, the T/C [5] was 113 % of control and the T/C [6] was 109 % of control.

`O=S(=O)(Nc1ccc(NS(=O)(=O)c2ccccc2)cc1)c1ccccc1` was tested, and the T/C (dose: 3.12 mg/kg/injection, schedule: Q01DX009 (ip), vehicle: Klucel (hydroxypropylcellulose) (HPC)) was 100 % of control, the T/C [7] was 100 % of control and the T/C [8] was 95 % of control. For the same molecule, the T/C [4] was 96 % of control.

`CCCCCCCCCCCCCCCCS(=O)(=O)CCO` was tested, and the T/C (dose: 100.0 mg/kg/injection, schedule: Q04DX003 (ip), vehicle: saline with Tween-80) was 104 % of control and the T/C (dose: 200.0 mg/kg/injection, schedule: Q04DX003 (ip), vehicle: saline with Tween-80) was 91 % of control.

`CC([NH-])C(=O)O.CC([NH-])C(=O)O.CC([NH-])C(=O)O.[Co+3]` (stereo not drawn) was tested, and the T/C (dose: 25.0 mg/kg/injection, schedule: Q01DX009 (ip), vehicle: water) was 103 % of control, the T/C (dose: 50.0 mg/kg/injection, schedule: Q01DX009 (ip), vehicle: water) was 92 % of control and the T/C (dose: 100.0 mg/kg/injection, schedule: Q01DX009 (ip), vehicle: water) was 92 % of control. The T/C (dose: 100.0 mg/kg/injection, schedule: Q04DX003 (ip), vehicle: water) was 116 % of control and the T/C (dose: 200.0 mg/kg/injection, schedule: Q04DX003 (ip), vehicle: water) was 90 % of control.

With `CCCN(CCC)CC(O)c1cc2cc(C(F)(F)F)cc(C(F)(F)F)c2c2ccccc12` (stereo not drawn) the T/C [9] was 107 % of control and the T/C [10] was 114 % of control.

In the case of `CC(=Nc1ccccc1)C1=C(O)C(Cc2ccccc2)NC1=O` (stereo not drawn), the T/C [9] was 124 % of control.

In the case of `COc1ccc(CC(C(=O)O)C(Cc2ccc(OC)c(OC)c2)C(=O)O)cc1OC` (stereo not drawn), the T/C [1] was 109 % of control, the T/C [2] was 100 % of control and the T/C [3] was 109 % of control.

In the case of `CCCCOC1CC2c3ccccc3C1c1cccc[n+]12` (stereo not drawn), the T/C (dose: 6.25 mg/kg/injection, schedule: Q01DX009 (ip), vehicle: saline) was 95 % of control, the T/C (dose: 12.5 mg/kg/injection, schedule: Q01DX009 (ip), vehicle: saline) was 109 % of control and the T/C (dose: 18.75 mg/kg/injection, schedule: Q04DX003 (ip), vehicle: saline) was 100 % of control. For the same molecule, the T/C (dose: 25.0 mg/kg/injection, schedule: Q01DX009 (ip), vehicle: saline) was 122 % of control and the T/C (dose: 37.5 mg/kg/injection, schedule: Q04DX003 (ip), vehicle: saline) was 95 % of control.

For `Cc1ccc2c(c1)SSc1ccc(C)cc1SS2`, the T/C [9] was 103 % of control, the T/C [10] was 109 % of control and the T/C (dose: 200.0 mg/kg/injection, schedule: Q01DX009 (ip), vehicle: saline with Tween-80) was 114 % of control.

With `CNC(C)(C)C(SS)c1ccc(Cl)cc1` (stereo not drawn) the T/C (dose: 6.25 mg/kg/injection, schedule: Q01DX009 (ip), vehicle: saline with Tween-80) was 110 % of control, the T/C (dose: 12.5 mg/kg/injection, schedule: Q01DX009 (ip), vehicle: saline with Tween-80) was 118 % of control and the T/C (dose: 25.0 mg/kg/injection, schedule: Q01DX009 (ip), vehicle: saline with Tween-80) was 105 % of control and 121 % of control. For the same molecule, the T/C (dose: 25.0 mg/kg/injection, schedule: Q04DX003 (ip), vehicle: saline with Tween-80) was 101 % of control, the T/C [9] was 96 % of control and 110 % of control and the T/C (dose: 50.0 mg/kg/injection, schedule: Q04DX003 (ip), vehicle: saline with Tween-80) was 99 % of control.

In the case of `COC(=O)c1cc(OC)cc(OC)c1`, the T/C (dose: 100.0 mg/kg/injection, schedule: Q04DX003 (ip), vehicle: other) was 100 % of control, the T/C (dose: 200.0 mg/kg/injection, schedule: Q04DX003 (ip), vehicle: other) was 113 % of control and the T/C (dose: 400.0 mg/kg/injection, schedule: Q04DX003 (ip), vehicle: other) was 109 % of control.

For `CCCCCCCCCCC(=O)OCC#CC#CCOC(=O)CCCCCCCCCC`, the T/C [1] was 104 % of control, the T/C [2] was 104 % of control and the T/C [3] was 100 % of control.

With `CCCCCCCCO/N=C\c1c2c(O)c3c(O)c(C)c4c(c3c1O)C(=O)C(C)(O/C=C\C(OC)C(C)C(OC(C)=O)C(C)C(O)C(C)C(O)C(C)/C=C\C=C(\C)C(=O)N2)O4` (stereo not drawn) the T/C [4] was 100 % of control and the T/C [5] was 100 % of control.

For `CC(C)N1c2c(nc(N)[nH]c2=O)NCC1CNc1ccc(C(=O)NC(CCC(=O)O)C(=O)O)cc1` (stereo not drawn), the T/C [11] was 105 % of control, the T/C (dose: 150.0 mg/kg/injection, schedule: Q01DX009 (ip), vehicle: saline) was 90 % of control and the T/C [12] was 97 % of control. The T/C (dose: 300.0 mg/kg/injection, schedule: Q01DX009 (ip), vehicle: saline) was 93 % of control and the T/C (dose: 400.0 mg/kg/injection, schedule: Q01DX009 (ip), vehicle: saline) was 110 % of control.

`COC(=O)C1CCCCC1C(=O)OC` (stereo not drawn) was tested, and the T/C [11] was 90 % of control, the T/C [12] was 95 % of control and the T/C (dose: 264.0 mg/kg/injection, schedule: Q01DX009 (ip), vehicle: saline with Tween-80) was 109 % of control. The T/C (dose: 400.0 mg/kg/injection, schedule: Q01DX009 (ip), vehicle: saline with Tween-80) was 109 % of control.

With `C=CCN1C(=O)C=CC1=O` the T/C (dose: 0.75 mg/kg/injection, schedule: Q01DX009 (ip), vehicle: saline) was 102 % of control and the T/C (dose: 3.0 mg/kg/injection, schedule: Q01DX009 (ip), vehicle: saline) was 117 % of control.

`COc1ccc(C(=S)N(C)NC(=O)CC(=O)NN(C)C(=S)c2ccc(OC)cc2)cc1` was tested, and the T/C (dose: 25.0 mg/kg/injection, schedule: Q01DX009 (ip), vehicle: Klucel (hydroxypropylcellulose) (HPC)) was 100 % of control, the T/C [13] was 102 % of control and the T/C [4] was 89 % of control. The T/C [5] was 100 % of control.

In the case of `Cc1ccc(S(=O)(=O)N/N=C/C(=O)O)cc1`, the T/C [7] was 113 % of control and 111 % of control, the T/C (dose: 6.25 mg/kg/injection, schedule: Q01DX009 (ip), vehicle: other) was 112 % of control and the T/C [8] was 124 % of control. The T/C [13] was 191 % of control and 169 % of control and 185 % of control, the T/C [4] was 90 % of control and 101 % of control and the T/C [6] was 114 % of control.

`COC(=O)c1c(C)ccc2c(O)c3c(cc12)C(=O)c1c2c(cc(O)c1C3=O)C1(C)OC(C)(O2)C(O)C(N(C)C)C1O` (stereo not drawn) was tested, and the T/C (dose: 70.0 mg/kg/injection, schedule: Q01DX009 (ip), vehicle: Klucel (hydroxypropylcellulose) (HPC)) was 150 % of control and the T/C (dose: 140.0 mg/kg/injection, schedule: Q01DX009 (ip), vehicle: Klucel (hydroxypropylcellulose) (HPC)) was 111 % of control.
